Source: patent US20250228827A1, “METHODS OF TREATING ERYTHROPOIETIC PROTOPORPHYRIA, X-LINKED PROTOPORPHYRIA, OR CONGENITAL ERYTHROPOIETIC PORPHYRIA WITH GLYCINE TRANSPORT INHIBITORS” (Disc Medicine, Inc., priority 2021, published 2025)

Experiments:
[1] = tested on: K562 clone 10-9 cells; experiment: PPIX accumulation in K562-EPP cellular model (Clone 10-9), flow cytometry; assay type: cell-based; settings: for effect on PPIX accumulation by flow cytometry: 96 hours; for IC50: Homo sapiens, 96 hours at 37° C., flow cytometry, read-out: IC50 of inhibition of PPIX accumulation
Description: CRISPR-Cas9 technology was utilized to generate genetic changes in the Ferrochelatase gene (FECH). Guide RNA sgRNA-1 was designed to target Exon 3 of FECH genetic locus and generate a knockout allele at the FECH genomic locus by introduction of indels that lead to frameshift of the coding sequence and premature stop codon. The K562 cells were cultured in IMDM medium supplemented with 10% fetal bovine serum (FBS), 1% penicillin/streptomycin (PS). CRISPR Cas9 RNP complex with guide RNA (gRNA) was electroporated in K562 cells. The transfection was performed using 4D Nucleofector, SF kit, FF-120 program. The transfected cells were plated at densities of 0.5 cells per well in 96-well plates in complete medium. Cells were allowed to grow until colonies were visible in the well. The K562-EPP subclones were individually expanded and screened for the FECH knockout genotype by PCR of genomic DNA and for the expression of the FECH gene by RT-PCR. K562-Clone 10 is determined to be heterozygous for the FECH knockout allele and has reduced expression level of FECH mRNA than the parental K562 cell line.
In order to introduce the IVS3-T48C mutation into the wild-type allele of the FECH gene in K562-Clone10, CRISPR Cas9 RNP complex with guide RNA sgRNA-2 and single stranded DNA donor were electroporated into the K562-clonel0 that is already heterozygous for the FECH knockout allele generated from the CRISPR-Cas9 gene editing event described in the previous paragraph. sgRNA-2 was designed to target Intron 3, close to the target site IVS3-T48. Similarly, single-cell clones were isolated from this round of gene editing by limited dilution. TA cloning and Sanger sequencing were used to confirm single-cell clones and genotypes. This procedure generated K562 Clone10-IVS-Clone9 (Clone 10-9), which carries the FECH knockout allele in trans with the IVS3-T48C mutation in the other FECH allele.
The effect of GlyT1 inhibitors on reducing PPIX accumulation was evaluated in the K562-EPP cellular model, Clone 10-9. 900 μL of K562 clone 10-9 cells at 2×10^5 cells/mL in IMDM media with 10% FBS and 1% PS were plated into a 24-well plate. After 24-hour incubation, 100 μL of compound in DMSO/media was added in different concentration. The final concentration of DMSO was 0.1%. The compound was incubated for 96 hours at 37° C. Cell viability and cell count were measured by Vi-CELL XR Complete System. Finally, the effect of the compound on PPIX level was determined by flow cytometry.

[2] = tested on: FECH knockdown CD34+ cells; experiment: PPIX accumulation in FECH knockdown CD34+ cells (CD34+-EPP cells), LC-MS/MS; assay type: cell-based, human; settings: for effect on PPIX accumulation / IC50: FECH knockdown CD34+ cells; for IC50: Homo sapiens, treated 9 days (day 8 to day 16), LC-MS/MS, read-out: IC50 on PPIX levels
Description: To investigate the effects of GlyT1 inhibitors in human hematopoietic stem cells with an EPP phenotype, lentiviral vectors expressing shRNA of FECH were constructed (Table 2) and transduced at 25 MOI into human cord blood-CD34+ cells purchased from Stemexpress.
Specifically, the purchased CD34+ cells were defrosted and expanded for eight days in serum-free Hematopoietic Progenitor Expansion Medium XF (C-28021) supplemented with Cytokine Mix E (human TPO, SCF, FLT-3 ligand and IL-3, #C-39891). During the expansion phase, CD34 expression was monitored, cells were frozen in a serum-free DMSO-based freezing medium (CryoStor® CS2).
For FECH knock-down experiments, cells expanded from a single vial were used to avoid donor heterogeneity. Freshly defrosted cells were expanded for three days (day 0-day 3) and infected with lentivirus expressing shControl or shFECH at an MOI of 25 in the presence of polybrene. After transduction, shRNA expressing cells were selected in the presence of puromycin (1 ug/ml) for four days (day 4-day 7). FECH expression levels were determined in the shFECH transfected CD34+ cells at Day 8. FECH mRNA level was reduced by ˜80% (0.196±0.307) in the shFECH transfected CD34+ cells (FIG. 5A). FECH protein level was reduced by ˜62% in the shFECH transfected CD34+ cells (FIG. 5B and FIG. 5C).
In order to evaluate the effect of GlyT1 inhibitor on PPIX accumulation in CD34^+-EPP cells, the cells were treated with serial dilutions of the compounds or DMSO control in the erythroid differentiation medium for 9 days (day 8 to day 16). The differentiated erythroid cells were harvested at day 16 and assayed for the intracellular PPIX levels by LC-MS/MS.

IC50 [1] [nM] | IC50 [2] [nM] | Compound | effect on PPIX accumulation by flow cytometry [1] | PPIX pmol/million cells ([2]; 0.46 nM, sample 1) [pmol/million cells] | PPIX pmol/million cells ([2]; 0.46 nM, sample 2) [pmol/million cells] | PPIX pmol/million cells ([2]; 1.37 nM, sample 1) [pmol/million cells] | PPIX pmol/million cells ([2]; 1.37 nM, sample 2) [pmol/million cells] | PPIX pmol/million cells ([2]; 4.12 nM, sample 1) [pmol/million cells] | PPIX pmol/million cells ([2]; 4.12 nM, sample 2) [pmol/million cells] | PPIX pmol/million cells ([2]; 12.35 nM, sample 1) [pmol/million cells] | PPIX pmol/million cells ([2]; 12.35 nM, sample 2) [pmol/million cells] | PPIX pmol/million cells ([2]; 37.04 nM, sample 1) [pmol/million cells] | PPIX pmol/million cells ([2]; 37.04 nM, sample 2) [pmol/million cells] | PPIX pmol/million cells ([2]; 111.11 nM, sample 1) [pmol/million cells] | PPIX pmol/million cells ([2]; 111.11 nM, sample 2) [pmol/million cells] | PPIX pmol/million cells ([2]; 333.33 nM, sample 1) [pmol/million cells] | PPIX pmol/million cells ([2]; 333.33 nM, sample 2) [pmol/million cells] | PPIX pmol/million cells ([2]; 1000.00 nM, sample 1) [pmol/million cells] | PPIX pmol/million cells ([2]; 1000.00 nM, sample 2) [pmol/million cells] | effect on PPIX accumulation [2]
43.5 | 97.1 | C[C@@H](Oc1ccc(S(C)(=O)=O)cc1C(=O)N1C[C@@H]2C[C@]2(c2cc(C(F)(F)F)on2)C1)C(F)(F)F [Compound A] | dose-dependent inhibition of PPIX accumulation | 19.2 | 18.2 | 11.8 | 16.7 | 18.5 | 13.3 | 30.1 | 20.3 | 18.5 | 19.4 | 7 | 7.25 | 5.97 | 4.69 | 3.94 | 6.95 | decreased
76.8 | 33.5 | C[C@H](Oc1ccc(S(C)(=O)=O)cc1C(=O)N1Cc2cc(C(F)(F)F)cnc2C1)C(F)(F)F [Compound X] | dose-dependent inhibition of PPIX accumulation | 25 | 27.1 | 27.3 | 46.5 | 34.4 | 24.7 | 34.6 | 34.6 | 14.7 | 17.5 | 13.6 | 13.5 | 14.1 | 15.2 | 11 | 12.8 | decreased PPIX accumulation
